Measurements as given in publication PMC5612938, “A multiple biomarker assay for quality assessment of botanical drugs using a versatile microfluidic chip” (Scientific Reports, 2017).

Molecular target: T1, ACE (from rabbit lung) (Oryctolagus cuniculus, UniProt P12822)
T1 construct: ACE (from rabbit lung); purchased Sigma-Aldrich; host or cells: rabbit lung
T1 sequence (P12822 34-1310): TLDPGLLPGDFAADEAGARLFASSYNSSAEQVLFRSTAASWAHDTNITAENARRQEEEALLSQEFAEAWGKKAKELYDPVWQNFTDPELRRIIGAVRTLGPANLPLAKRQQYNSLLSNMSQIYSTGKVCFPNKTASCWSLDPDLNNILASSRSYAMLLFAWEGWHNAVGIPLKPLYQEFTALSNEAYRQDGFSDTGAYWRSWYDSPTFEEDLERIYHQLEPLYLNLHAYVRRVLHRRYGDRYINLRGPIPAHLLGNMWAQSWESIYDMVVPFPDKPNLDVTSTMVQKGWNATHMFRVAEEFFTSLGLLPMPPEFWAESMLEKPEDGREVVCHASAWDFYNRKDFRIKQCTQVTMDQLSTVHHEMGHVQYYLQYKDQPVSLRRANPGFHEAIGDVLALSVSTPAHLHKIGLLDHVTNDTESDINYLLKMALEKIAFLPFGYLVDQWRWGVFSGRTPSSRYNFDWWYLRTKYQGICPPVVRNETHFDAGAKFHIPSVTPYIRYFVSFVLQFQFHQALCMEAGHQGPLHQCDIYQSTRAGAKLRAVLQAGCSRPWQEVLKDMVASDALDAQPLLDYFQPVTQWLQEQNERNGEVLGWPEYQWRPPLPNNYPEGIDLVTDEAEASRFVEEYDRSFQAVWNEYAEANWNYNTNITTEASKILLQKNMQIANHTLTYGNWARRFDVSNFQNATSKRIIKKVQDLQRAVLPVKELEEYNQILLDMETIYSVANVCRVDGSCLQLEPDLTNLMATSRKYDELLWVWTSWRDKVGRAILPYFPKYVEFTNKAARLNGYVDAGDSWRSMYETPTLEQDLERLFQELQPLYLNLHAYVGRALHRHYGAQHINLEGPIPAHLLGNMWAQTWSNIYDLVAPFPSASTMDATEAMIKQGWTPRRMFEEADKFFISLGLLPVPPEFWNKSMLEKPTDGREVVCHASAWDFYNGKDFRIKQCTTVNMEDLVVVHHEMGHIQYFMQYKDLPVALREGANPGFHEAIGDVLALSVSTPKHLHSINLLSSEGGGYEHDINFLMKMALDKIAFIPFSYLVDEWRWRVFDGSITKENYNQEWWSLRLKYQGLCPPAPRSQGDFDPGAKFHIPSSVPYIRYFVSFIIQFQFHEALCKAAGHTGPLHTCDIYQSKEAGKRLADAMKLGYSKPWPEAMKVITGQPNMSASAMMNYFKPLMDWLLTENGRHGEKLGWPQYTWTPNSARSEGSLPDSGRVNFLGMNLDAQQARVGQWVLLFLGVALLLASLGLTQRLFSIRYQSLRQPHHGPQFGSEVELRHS
Test: on-chip affinity screening, binding degree by LC-MS peak area vs protein-free control (ACE)
Settings: for ACE; [(As − Ac)/As] × 100, sample vs protein-free control, EIC peak area
Source text: In addition to quality assessment, the microfluidic chip can also function as “affinity chromatography” to identify bioactive constituents from botanical drugs in a convenient and efficient manner. After the bioassay, the bound phytochemicals were dissociated from the enzymes and accurately identified by LC-MS. The material used for the chambers in microfluidic system, polydimethylsiloxane (PDMS), is apt to adsorb small molecules nonspecifically, thus a protein-free control was applied to reflect the degree of nonspecific binding of compounds to the chip. Peak areas were obtained from the extracted ion chromatography (EIC) in an ion-trap mass spectrometry (IT-MS), and binding degree (binding degree % = [(As − Ac)/As] × 100, where As and Ac were the peak area in the sample and control, respectively) was calculated to indicate binding specificity. […] All these peaks were unambiguously confirmed via comparisons with chemical standards in terms of retention time and mass spectra (Table 2), and five thrombin inhibitors (danshensu, salvianolic acid B, salvianolic acid C, rosmarinic acid and ginsenoside Rg1) and six ACE inhibitors (astragaloside IV, ononin, formononetin, calycosin, danshensu and salvianolic acid B) were preliminarily identified. […] Enzyme inhibition assays of these hit compounds were then performed to verify the screening results. […] Compounds showing an inhibition rate over 70% were subjected to IC50 measurement.
MBs (10 mg/mL) were diluted 10 times in PB or Tris-HCl buffer, and 10 μL of the diluted MBs (1 mg/mL) were injected into one channel of the chip using a syringe infusion pump (Harvard Apparatus, USA) and retained by an external magnet. Then, 10 μL of thrombin or ACE solution was added and incubated with MBs for two hours at room temperature to form enzyme-MB complexes. The magnet was manually controlled to move MBs back and forth to enhance the ratio of reaction. Subsequently, MBs were washed twice in assay buffer and magnetically transferred to the other channel through the fluidic bridge, whose opening and closing was controlled by a pneumatic valve. Next, 10 μL of sample solutions of tested drug and 10 μL of enzymatic substrate were sequentially infused to the channel by the pump and incubated with the enzyme. When the enzymatic reaction was finished, the MBs were retained in the channel, and air was injected into the channel from the inlet using a syringe to push all the reacted solution to a 384-well plate. The absorbance of the solution was then monitored at 405 nm (for S-2238) or 340 nm (for FAPGG) using an Infinite F200 spectrophotometer (Tecan, Männedorf, Switzerland). Moreover, after detection, the reaction channel was washed three times by assay buffer to remove unbound constituents. 20 μL of 80% aqueous methanol was then injected and incubated with MBs for one hour to dissociate the bound constituents. The resulting solutions of replicates were combined, evaporated by a centrifugal evaporator, reconstituted in 80% aqueous methanol, centrifuged at 10,000 rpm for 10 min, and analyzed by LC-MS for chemical identification.
An Agilent 1100 HPLC system (Agilent Technologies, Waldbronn, Germany) coupled with an LCQ Deca XP^plus IT-MS (Thermo Finnigan, San Jose, CA, USA) equipped with an electrospray ionization (ESI) interface was employed for structure elucidation of the bounded constituents. The analysis was performed in negative ionization mode under following operation parameters: scan range m/z 100–1500; capillary voltage −15 V; source voltage −3 kV; capillary temperature 350 °C; sheath gas (N2) 60 arb; auxiliary gas (N2) 20 arb.

SMILES	Binding degree (%)
O=C(/C=C/c1ccc(O)c2c1[C@H](C(=O)O[C@H](Cc1ccc(O)c(O)c1)C(=O)O)[C@@H](c1ccc(O)c(O)c1)O2)O[C@H](Cc1ccc(O)c(O)c1)C(=O)O [Salvianolic acid B]	41.3
O=C(O)C(O)Cc1ccc(O)c(O)c1 (centres unmarked) [Danshensu]	57.2
